Experiment [1] concerns the target T1, Discoidin domain-containing receptor 2 (Homo sapiens, UniProt Q16832).
T1 sequence (Q16832 whole entry): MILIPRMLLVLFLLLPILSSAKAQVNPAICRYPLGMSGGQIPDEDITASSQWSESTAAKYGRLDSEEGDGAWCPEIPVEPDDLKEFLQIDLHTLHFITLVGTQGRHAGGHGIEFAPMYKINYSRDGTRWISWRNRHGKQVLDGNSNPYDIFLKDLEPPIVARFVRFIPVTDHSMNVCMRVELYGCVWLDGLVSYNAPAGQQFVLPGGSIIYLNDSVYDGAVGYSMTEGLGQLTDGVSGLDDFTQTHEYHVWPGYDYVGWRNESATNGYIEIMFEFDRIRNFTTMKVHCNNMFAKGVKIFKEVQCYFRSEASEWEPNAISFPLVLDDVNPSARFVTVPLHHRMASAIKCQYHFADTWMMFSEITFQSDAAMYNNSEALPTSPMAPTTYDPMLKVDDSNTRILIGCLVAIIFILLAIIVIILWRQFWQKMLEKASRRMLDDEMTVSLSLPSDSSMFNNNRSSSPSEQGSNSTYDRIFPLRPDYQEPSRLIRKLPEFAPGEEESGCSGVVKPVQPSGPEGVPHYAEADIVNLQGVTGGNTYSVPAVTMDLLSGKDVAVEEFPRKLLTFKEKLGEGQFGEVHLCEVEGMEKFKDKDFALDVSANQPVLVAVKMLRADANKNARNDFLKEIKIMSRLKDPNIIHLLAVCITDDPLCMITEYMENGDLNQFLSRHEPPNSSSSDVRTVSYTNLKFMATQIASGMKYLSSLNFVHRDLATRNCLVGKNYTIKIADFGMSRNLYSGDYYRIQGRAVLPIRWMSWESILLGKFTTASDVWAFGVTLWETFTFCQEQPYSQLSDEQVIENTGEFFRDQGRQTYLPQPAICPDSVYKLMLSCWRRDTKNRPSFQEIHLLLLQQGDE

The target in experiment [2] is DnaJ homolog subfamily A member 1 (Homo sapiens, UniProt P31689).
DnaJ homolog subfamily A member 1, sequence (P31689 whole entry): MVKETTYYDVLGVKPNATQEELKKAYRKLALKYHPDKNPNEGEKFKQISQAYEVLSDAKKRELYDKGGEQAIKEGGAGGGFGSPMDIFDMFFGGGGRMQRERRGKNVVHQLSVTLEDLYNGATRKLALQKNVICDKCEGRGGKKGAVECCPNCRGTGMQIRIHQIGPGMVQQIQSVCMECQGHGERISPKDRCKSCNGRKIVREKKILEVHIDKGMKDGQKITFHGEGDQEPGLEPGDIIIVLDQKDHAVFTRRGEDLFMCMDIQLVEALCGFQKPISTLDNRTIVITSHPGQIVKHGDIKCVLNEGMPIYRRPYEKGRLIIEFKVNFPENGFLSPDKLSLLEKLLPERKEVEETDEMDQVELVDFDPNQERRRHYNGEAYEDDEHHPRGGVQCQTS
In experiment [3] the target is T2, Phenylalanine--tRNA ligase beta subunit (Homo sapiens, UniProt Q9NSD9).
T2 sequence (Q9NSD9 whole entry): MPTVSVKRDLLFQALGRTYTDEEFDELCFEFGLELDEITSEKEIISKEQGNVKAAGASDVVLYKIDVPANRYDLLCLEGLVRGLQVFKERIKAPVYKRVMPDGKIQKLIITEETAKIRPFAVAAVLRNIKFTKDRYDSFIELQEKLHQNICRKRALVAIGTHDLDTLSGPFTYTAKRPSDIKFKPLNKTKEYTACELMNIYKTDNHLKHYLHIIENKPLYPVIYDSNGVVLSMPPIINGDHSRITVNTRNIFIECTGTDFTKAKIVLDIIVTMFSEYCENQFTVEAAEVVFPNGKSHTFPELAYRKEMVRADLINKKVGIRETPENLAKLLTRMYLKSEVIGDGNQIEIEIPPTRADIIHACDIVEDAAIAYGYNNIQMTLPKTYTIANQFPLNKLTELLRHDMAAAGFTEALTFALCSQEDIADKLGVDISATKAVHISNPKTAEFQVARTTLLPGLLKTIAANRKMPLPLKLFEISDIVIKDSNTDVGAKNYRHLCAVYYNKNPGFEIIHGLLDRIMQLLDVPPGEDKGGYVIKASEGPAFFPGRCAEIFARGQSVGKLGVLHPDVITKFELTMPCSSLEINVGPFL

Experiment [4] deals with Dual specificity mitogen-activated protein kinase kinase 1 (Homo sapiens, UniProt Q02750).
Dual specificity mitogen-activated protein kinase kinase 1, sequence (Q02750 whole entry): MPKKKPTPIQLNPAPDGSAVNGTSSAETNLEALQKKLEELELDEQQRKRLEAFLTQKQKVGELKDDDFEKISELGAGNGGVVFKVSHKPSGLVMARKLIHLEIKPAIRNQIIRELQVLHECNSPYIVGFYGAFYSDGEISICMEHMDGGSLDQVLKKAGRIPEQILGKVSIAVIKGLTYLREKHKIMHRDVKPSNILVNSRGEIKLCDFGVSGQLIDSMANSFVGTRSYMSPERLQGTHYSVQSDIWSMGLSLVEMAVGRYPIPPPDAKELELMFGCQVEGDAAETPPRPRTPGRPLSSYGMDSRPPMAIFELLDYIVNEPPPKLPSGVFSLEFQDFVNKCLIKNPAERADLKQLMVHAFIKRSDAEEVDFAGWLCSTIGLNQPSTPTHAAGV
For experiment [5], the target named is T3, Serine/threonine-protein kinase PLK4 (Homo sapiens, UniProt O00444).
T3 sequence (O00444 whole entry): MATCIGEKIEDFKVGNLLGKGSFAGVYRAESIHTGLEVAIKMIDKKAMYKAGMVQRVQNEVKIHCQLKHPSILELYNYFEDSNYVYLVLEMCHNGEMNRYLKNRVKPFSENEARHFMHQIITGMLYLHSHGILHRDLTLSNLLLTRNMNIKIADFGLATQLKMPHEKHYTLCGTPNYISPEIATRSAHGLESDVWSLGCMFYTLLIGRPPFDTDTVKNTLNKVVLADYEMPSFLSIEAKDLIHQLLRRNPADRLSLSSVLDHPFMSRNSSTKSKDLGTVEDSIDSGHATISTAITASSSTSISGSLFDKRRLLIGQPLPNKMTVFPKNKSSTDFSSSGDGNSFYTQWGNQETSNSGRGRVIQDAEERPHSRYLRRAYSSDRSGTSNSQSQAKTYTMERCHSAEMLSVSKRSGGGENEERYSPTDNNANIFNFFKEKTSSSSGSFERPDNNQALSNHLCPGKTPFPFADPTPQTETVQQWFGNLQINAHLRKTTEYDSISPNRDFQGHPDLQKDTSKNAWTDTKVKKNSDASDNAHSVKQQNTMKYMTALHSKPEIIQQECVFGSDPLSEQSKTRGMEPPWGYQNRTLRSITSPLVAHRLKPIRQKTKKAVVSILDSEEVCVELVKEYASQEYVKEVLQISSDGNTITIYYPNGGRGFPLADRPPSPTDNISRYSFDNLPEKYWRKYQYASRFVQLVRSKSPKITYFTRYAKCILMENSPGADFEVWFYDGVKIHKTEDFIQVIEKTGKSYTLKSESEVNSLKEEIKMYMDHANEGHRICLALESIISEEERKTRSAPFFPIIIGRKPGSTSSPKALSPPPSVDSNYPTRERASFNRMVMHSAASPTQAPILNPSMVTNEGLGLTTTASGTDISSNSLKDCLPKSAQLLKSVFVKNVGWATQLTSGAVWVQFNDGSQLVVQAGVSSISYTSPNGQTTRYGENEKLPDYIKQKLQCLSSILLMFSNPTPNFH

Experiment [6] deals with Serine/threonine-protein kinase 26 (Homo sapiens, UniProt Q9P289).
Serine/threonine-protein kinase 26, sequence (Q9P289 whole entry): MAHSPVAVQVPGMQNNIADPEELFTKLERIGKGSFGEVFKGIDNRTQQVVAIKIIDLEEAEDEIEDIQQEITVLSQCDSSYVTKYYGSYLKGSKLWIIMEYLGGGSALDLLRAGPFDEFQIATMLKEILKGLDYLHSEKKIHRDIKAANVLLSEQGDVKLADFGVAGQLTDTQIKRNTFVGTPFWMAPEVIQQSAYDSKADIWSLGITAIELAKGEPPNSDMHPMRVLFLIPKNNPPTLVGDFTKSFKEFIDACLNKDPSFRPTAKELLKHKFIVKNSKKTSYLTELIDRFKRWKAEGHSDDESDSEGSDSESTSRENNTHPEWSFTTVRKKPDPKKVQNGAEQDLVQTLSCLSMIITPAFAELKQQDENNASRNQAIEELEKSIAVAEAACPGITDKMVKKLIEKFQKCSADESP

The source made the active and inactive calls. Rule as the data show it, for most assays here: actives have a measured Kd and inactives only a lower limit.

As usually defined, the Kd is the constant that tells how readily two partners part at equilibrium.
Also: in the data inactive means no Kd found up to 30 µM.

Take `COc1ncc(-c2ccc3nccc(-c4ccnnc4)c3c2)cc1NS(=O)(=O)c1ccc(F)cc1F` [OMIPALISIB]: the Kd in experiment [1], in experiment [2], in experiment [3], in experiment [4], in experiment [5] and in experiment [6] was > 30 µM (inactive) each time.
On to `CCOc1cc2ncc(C#N)c(Nc3ccc(F)c(Cl)c3)c2cc1NC(=O)/C=C/CN(C)C` [PELITINIB], for which the Kd in experiment [1] was > 30 µM (inactive); in experiment [2], > 30 µM (inactive); in experiment [3] it was > 30 µM (inactive); in experiment [4] it was 8.77 µM (active); in experiment [5], > 30 µM (inactive); in experiment [6] it was > 30 µM (inactive).
Consider `CCCCCCCCCCCCCCCCCCOP(=O)([O-])OC1CC[N+](C)(C)CC1` [PERIFOSINE], for which the Kd in experiment [1], in experiment [2], in experiment [3], in experiment [4], in experiment [5] and in experiment [6] was > 30 µM (inactive) throughout.
Take `Cc1nc(Nc2n[nH]c3c2CN(C(=O)N[C@H](CN(C)C)c2ccccc2)C3(C)C)c2sccc2n1` [PF-03758309]: the Kd was > 30 µM (inactive) in experiment [1]; > 30 µM (inactive) in experiment [2]; > 30 µM (inactive) in experiment [3]; > 30 µM (inactive) in experiment [4]; 0.668 µM (active) in experiment [5]; 0.017 µM in experiment [6].
Consider `Cc1cnc(NC(=O)Nc2cc(Br)c(C)cc2OC[C@@H]2CNCCO2)cn1` [RABUSERTIB], for which the Kd in experiment [1], in experiment [2], in experiment [3], in experiment [4], in experiment [5] and in experiment [6] was > 30 µM (inactive) throughout.
Regarding `CO[C@H]1C[C@@H]2CC[C@@H](C)[C@@](O)(O2)C(=O)C(=O)N2CCCC[C@H]2C(=O)O[C@H]([C@H](C)C[C@@H]2CC[C@@H](OP(C)(C)=O)[C@H](OC)C2)CC(=O)[C@H](C)/C=C(\C)[C@@H](O)[C@@H](OC)C(=O)[C@H](C)C[C@H](C)/C=C/C=C/C=C/1C` [RIDAFOROLIMUS], the Kd in experiment [1], in experiment [2], in experiment [3], in experiment [4], in experiment [5] and in experiment [6] was > 30 µM (inactive) in each case.
As to `N#CC1(c2ccc(NC(=O)c3cccnc3NCc3ccncc3)cc2)CCCC1` [RIVOCERANIB], the Kd in experiment [1], in experiment [2], in experiment [3], in experiment [4], in experiment [5] and in experiment [6] was > 30 µM (inactive) in each case.
As to `O=c1[nH]ccc2cc(OC3CCNCC3)ccc12` [SAR-407899 FREE BASE], the Kd in experiment [1], in experiment [2], in experiment [3], in experiment [4], in experiment [5] and in experiment [6] was > 30 µM (inactive) throughout.
As for `Cn1cc(-c2cnn3c(N)c(Br)c([C@@H]4CCCNC4)nc23)cn1` [SCH-900776], the Kd in experiment [1], in experiment [2], in experiment [3], in experiment [4], in experiment [5] and in experiment [6] was > 30 µM (inactive) in each case.
For the compound `CO[C@H]1C[C@@H]2CC[C@@H](C)[C@@](O)(O2)C(=O)C(=O)N2CCCC[C@H]2C(=O)O[C@H]([C@H](C)C[C@@H]2CC[C@@H](O)[C@H](OC)C2)CC(=O)[C@H](C)/C=C(\C)[C@@H](O)[C@@H](OC)C(=O)[C@H](C)C[C@H](C)/C=C/C=C/C=C/1C` [SIROLIMUS], the Kd in experiment [1], in experiment [2], in experiment [3], in experiment [4], in experiment [5] and in experiment [6] was > 30 µM (inactive) in each case.
For `CO[C@H]1C[C@@H]2CC[C@@H](C)[C@@](O)(O2)C(=O)C(=O)N2CCCC[C@H]2C(=O)O[C@H]([C@H](C)C[C@@H]2CC[C@@H](OC(=O)C(C)(CO)CO)[C@H](OC)C2)CC(=O)[C@H](C)/C=C(\C)[C@@H](O)[C@@H](OC)C(=O)[C@H](C)C[C@H](C)/C=C/C=C/C=C/1C` [TEMSIROLIMUS], the Kd in experiment [1], in experiment [2], in experiment [3], in experiment [4], in experiment [5] and in experiment [6] was > 30 µM (inactive) in each case.
Turning to `COc1cc2c(Nc3ccc(Cl)c(Cl)c3F)ncnc2cc1OC[C@@H]1C[C@@H]2CN(C)C[C@@H]2C1` [TESEVATINIB], the Kd in experiment [1] is 1.52 µM (active); in experiment [2], > 30 µM (inactive); in experiment [3], > 30 µM (inactive); in experiment [4], > 30 µM (inactive); in experiment [5], > 30 µM (inactive); in experiment [6], > 30 µM (inactive).
Consider `O=C(Cc1ccc(-c2ccc(OCCN3CCOCC3)cc2)cn1)NCc1ccccc1` [TIRBANIBULIN], for which the Kd in experiment [1], in experiment [2], in experiment [3], in experiment [4], in experiment [5] and in experiment [6] was > 30 µM (inactive) each time.
With `O=C1NC(=O)[C@@H](c2cn3c4c(cccc24)CCC3)[C@@H]1c1c[nH]c2ccccc12` [TIVANTINIB], the Kd in experiment [1], in experiment [2], in experiment [3], in experiment [4], in experiment [5] and in experiment [6] was > 30 µM (inactive) in each case.
Regarding `C[C@@H](NC(=O)c1ncnc(N)c1Cl)c1ncc(C(=O)Nc2cc(C(F)(F)F)c(Cl)cn2)s1` [TOVORAFENIB], the Kd was 0.227 µM (active) in experiment [1]; > 30 µM (inactive) in experiment [2]; > 30 µM (inactive) in experiment [3]; > 30 µM (inactive) in experiment [4]; > 30 µM (inactive) in experiment [5]; > 30 µM (inactive) in experiment [6].

The values above are taken from ChEMBL document CHEMBL3991601, “The target landscape of clinical kinase drugs” (Science, 2017).
